Tests used:
[1] = Comparative clinical study: general urine examination (leukocytes in urine sediments, urine pH); format: in vivo, patients; conditions: n=50 per group
From the text: (§1) Urinary tract infection constitutes the most frequent urologic disease and is one of the most common infections in human beings. Urinary infection encompasses several clinical conditions, so the proper study thereof is very important for a suitable diagnose and treatment, in view of the extensive and not inconsiderable hospital and healthcare expenses these involve.
(§2) Inclusion criteria were the following: • - Patients from 18 to 75 years of age. • - Patients having a non-complex acute urinary infection diagnose. • > 12 leukocytes per mm3 in urine sediments. • - Urine counts of > 100,000 UFC/ml. • - Urine pH over 6.0. • - Microorganism identification.
(§3) Only twice a day for 5 days,- group 2, received Vitamin C 100 mg.
General urine examination determined the color, appearance and density thereof, as well as the pH, Proteins, Glucose, Ketones, Blood, Bilirubin, Urobilinogen, Nitrites, Density and Leukocytes. […] Table 2. Leukocytes per mm3 in baseline urine sediments and up to Day 5 of the treatment.

E. coli = test: Comparative clinical study: urocultive by antibiogram, urine counts (colony-forming units); format: in vivo, Escherichia coli; conditions: n=50 per group
From the text: as §1, §2, §3
Table 4. Urine Counts in UFC/ml. (Colony-Forming Units).

[2] = Comparative clinical study: overall healing process (conclusions); format: in vivo; conditions: patients with acute non-complex urinary tract infection, 5 days of treatment
Description: as §1, §3

Structure (SMILES): O=C1O[C@H]([C@@H](O)CO)C(O)=C1O [Vitamin C, Ascorbic Acid]
- pH (Day 1) ([1]; baseline urine pH, before treatment): 7.6
- Leukocytes (Day 1) ([1]; baseline urine sediments, before treatment): > 13 per mm3
- pH (Day 5) ([1]; urine pH, Day 5 of the treatment, twice a day for 5 days): 5.0
- Leukocytes Day 5 ([1]; urine sediments, Day 5 of the treatment, twice a day for 5 days): < 10 per mm3
- UFC/ml (Day 1) (E. coli; baseline urine counts (Colony-Forming Units), before treatment): >100,000/ml. UFC/ml
- UFC/ml Day 5 (E. coli; urine counts (Colony-Forming Units), Day 5 of the treatment, twice a day for 5 days): 90.000/ml. UFC/ml
- healing process [2]: not sufficient by itself to achieve a healing process

— patent publication EP2149374A1 (WORLD-TRADE IMPORT-EXPORT, WTIE, A.G., priority 2007, dated 2008)
